In paper PMC6917776, “Discovery of a chemical probe for PRDM9” (Nature Communications, 2019):
Several values for one entry are separate records, joined by “and”; a condition that tells them apart may be missing. Equal entries are not always repeated.

Biological target: T1, PRDM9 (amino acids: 195–415) (Homo sapiens, UniProt Q9NQV7)
T1 construct: PRDM9 (amino acids: 195–415)
T1 sequence (Q9NQV7 195-415): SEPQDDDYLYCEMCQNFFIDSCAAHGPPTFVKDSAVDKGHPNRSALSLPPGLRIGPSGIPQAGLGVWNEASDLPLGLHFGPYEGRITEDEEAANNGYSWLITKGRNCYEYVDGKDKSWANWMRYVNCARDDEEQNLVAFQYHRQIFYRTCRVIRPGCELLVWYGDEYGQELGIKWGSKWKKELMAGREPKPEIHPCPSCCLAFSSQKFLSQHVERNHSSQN
Assay: PRDM9 methyltransferase activity assay (3H-SAM scintillation proximity assay)
Type: biochemical
Settings: 100 µM compound

COc1cc(OC)cc(-c2noc(N3CCN(C)C4(CCN(c5ccccc5)CC4)C3)n2)c1 [MRK-740-NC]
PRDM9-Activity %, single experiments: 82.7625% and 75.9398%
